Measured values as given in patent publication US20230075822A1, “USE OF CASTALAGIN OR ANALOGS THEREOF FOR ANTI-CANCER EFFICACY AND TO INCREASE THE RESPONSE TO IMMUNE CHECKPOINT INHIBITORS” (THE ROYAL INSTITUTION FOR THE ADVANCEMENT OF …, priority 2020, published 2023).

Legend:
[1] = system: CD8^+/Foxp3^+CD4^+ T cells; assay: Immunofluorescence staining (CD4, CD8, Foxp3) of MCA-205 tumors; type: in vivo, C57BL/6 mice; conditions: castalagin/IsoPD-1 relative to Water/IsoPD-1
Excerpt: FIG. 10B Representative images for the CD4, CD8 and Foxp3 immunofluorescence staining of tumors in both water/ISoPD-1 and castalagin/IsoPD-1 groups. FIG. 10C Box plot for the ratio CD8^+/Foxp3^+CD4^+ in tumor in (n=8/group) obtained with immunofluorescence staining. *p<0.05. Immunofluorescence staining. Murine tumors preserved in optimal cutting temperature (OCT) compound were cut (5 μm-thick sections) and adhered to microscope slides and stored at −80C°. Upon the start of the experiment, slides were air dried and washed with cold acetone. To prevent non-specific binding to biotin, the Endogenous Avidin Biotin Blocking kit (ThermoFisher) was used. Additionally, tissues were incubated with 10% donkey serum in order to reduce background staining. Primary antibodies used are anti-CD4, anti-CD8, anti-Foxp3. Donkey anti-goat and donkey anti-rat conjugated to AF-488 were used as secondary antibodies and slides were incubated with Cy3-Streptavidin to detect biotinylated antibodies. Nuclei were visualized by counterstaining with DAPI (ThermoFisher). Images were generated using the whole slide scanner Olympus BX61VS (20× 0.75NA objective with a resolution of […]). The images were analysed using Visiomorph software (Visiopharm).

MCA-205 sarcoma = assay: Subcutaneous MCA-205 sarcoma tumor model (anti-PD-1 sensitive), SPF-reared mice; type: in vivo, C57BL/6 mice; conditions: for anti-cancer activity (tumor size at sacrifice): in the presence of anti-PD-1
Description: FIG. 1A is a schematic of the protocol used to study the effect of a Camu camu extract (CC) alone and additive effect when combined to anti-PD-1 therapy in a murine tumor model sensitive to anti-PD-1 therapy. Syngeneic C57BL/6 mice were implanted with 0.8×10^6 MCA-205 sarcoma, subcutaneously and treated intraperitoneally (i.p.) when tumors reached 20 to 35 mm^2 in size with anti-PD-1 mAb (250 μg/mouse; clone RMP1-14,) or isotype control (clone 2A3) with or without daily oral gavage with 200 mg/kg of [NT] Powder from SunFood). Murine studies. All animal studies were approved by the Institutional Animal Care Committee (CIPA) and carried out in compliance with the Canadian Council on Animal Care guidelines. Murine experiments were conducted using seven-week-old female C57BL/6 mice, obtained from Charles River, Canada. Germ-free female C57BL/6 mice were purchased from the International Microbiome Centre Germ-Free Facility (University of Calgary, Canada) and maintained at the CR-CHUM Germ-Free Facility. Cell culture, reagents and tumor cell lines. MCA-205 fibrosarcoma cells and E0771 mammary adenocarcinoma cells, class I MHC H-2b syngeneic cell lines for C57BL/6 mice, were used for this study. MCA-205 cells were cultured at 37° C. in the presence of 5% CO2 in Roswell Park Memorial Institute (RPMI) 1640 (Gibco-lnvitrogen) containing 10% Fetal bovine serum (FBS) (Wisent), 2 mM L-glutamine (Wisent), 100 IU/ml penicillin/streptomycin (Wisent), 1 mM sodium pyruvate (Wisent) and MEM non-essential amino acids (Gibco-lnvitrogen). E0771 cells were cultured at 37° C. in the presence of 5% CO2 in Dulbecco's Modified Eagle's Medium (DMEM) (Gibco-lnvitrogen) containing 10% FBS (Wisent), 2 mM L-glutamine, 100 IU/ml penicillin/streptomycin (Wisent), 1 mM sodium pyruvate (Wisent). Subcutaneous model of MCA-205 sarcoma and E0771 breast cancer. Syngeneic C57BL/6 mice were implanted with 0.8×10^6 MCA-205 or 0.5×10^6 E0771 subcutaneously. When tumors reached 20 to 35 mm^2 in size, mice were treated four times (or two times for flow cytometry analysis, see section below) intraperitoneally (i.p.) every three day with anti-PD-1 monoclonal antibody (mAb) (250 μg/mouse; clone RMP1-14, BioXcell) or isotype control (clone 2A3, BioXcell). Upon treatment initiation, mice received a daily oral gavage with the following products: Myrciaria dubia, [NT] raw extract (Sunfood) (200 mg/kg per mouse), fractions from the extraction round 1 (P, INT, NP, Insol) (40.18 mg/kg per mouse), fractions from the extraction round 2 (P1, P2, P3 and P4) (equivalent to fraction P dose of 40.18 mg/kg per mouse), […] (extracted from CC, see isolation process below) (0.85 mg/kg per mouse), ellagic acid (0.85 mg/kg per mouse) (Sigma-Aldrich), urolithin A (0.85 mg/kg per mouse) (Sigma-Aldrich), […] (0.5 mg/kg per mouse) (PhytoProof®, Sigma-Aldrich) and castalagin at different concentration: 1/8, 1/6, 1/4, 1/2 of the standard concentration, at the standard concentration (0.85 mg/kg per mouse), 1.5-fold (1.25 mg/kg per mouse) and three-fold increase concentration (2.55 mg/kg per mouse) (PhytoProof©, Sigma-Aldrich or isolated from food grade oak, see isolation process below). In the control group mice received daily oral gavage with water (100 μL) Tumor area was routinely monitored every three days by means of a caliper. In the depletion experiments, we used the anti-CD8 mAb (150 μg/mouse; clone 53-6.7, BioXcell) or isotype control (clone 2A3, BioXcell.

`O=C1OC[C@H]2OC(=O)c3cc(O)c(O)c(O)c3-c3c(O)c(O)c(O)c4c3C(=O)O[C@H]([C@H]3OC(=O)c5c-4c(O)c(O)c(O)c5[C@@H]3O)[C@@H]2OC(=O)c2cc(O)c(O)c(O)c2-c2c1cc(O)c(O)c2O` [castalagin, Castalagin] was tested, and the “ratio CD8^+/Foxp3^+ CD4^+ in tumor (immunofluorescence)” value [1] was “increase of the ratio CD8^+/Foxp3^+ CD4^+”, the “dose dependence of anti-cancer activity” value (MCA-205 sarcoma; 6 concentrations from ⅛ to 3-fold the standard dose) was “dose-dependent effect with a potential plateau” and the antitumor effect (MCA-205 sarcoma; dose experiment, 1/4 concentration dose (0.21 mg/kg)) was “no antitumor effect”. The “anti-cancer activity (tumor size at sacrifice)” value (MCA-205 sarcoma; dose experiment, 3-fold concentration (2.55 mg/kg per mouse)) was “did not the standard dose”, the “anti-cancer activity (tumor size at sacrifice)” value (MCA-205 sarcoma; dose experiment, standard dose (0.85 mg/kg)) was “anti-cancer activity became significant” and the “anti-cancer activity (tumor size at sacrifice)” value (MCA-205 sarcoma; dose experiment, ½ dose (0.42 mg/kg)) was “Some anti-cancer activity was observed”.
